Measured values reported in US12371454B2, “Cyclic peptide compound having Kras inhibitory action” (priority 2019, dated 2025).
Starred links: 1 amine or outer side, 2 acyl side, 3 side chain; linkers in the order of their positions; H or OH if unused. Positions of bridges follow the written chain, without caps; N, C: chain ends. Non-standard residues stand in square brackets, D forms with d. Residues, ends and D or L forms follow the SMILES beside them. *: point of attachment. hPhe(3,5-F2-4-CF3) = N[C@@H](CCc1cc(F)c(C(F)(F)F)c(F)c1)C(=O)O; hPhe(3-Cl-4-CF3) = N[C@@H](CCc1ccc(C(F)(F)F)c(Cl)c1)C(=O)O; hPhe(3-F,4-CF3) = N[C@@H](CCc1ccc(C(F)(F)F)c(F)c1)C(=O)O; hPhe(4-CF3) = N[C@@H](CCc1ccc(C(F)(F)F)cc1)C(=O)O; NMePhe(3-Cl) = CN[C@@H](Cc1cccc(Cl)c1)C(=O)O; NMePhe(4-Cl) = CN[C@@H](Cc1ccc(Cl)cc1)C(=O)O; NMePhe(4-F) = CN[C@@H](Cc1ccc(F)cc1)C(=O)O; NMedβ3hAla = C[C@H](CC(=O)[*:2])N(C)[*:1]; NMeAla(cPent) = CN[C@@H](CC1CCCC1)C(=O)O; NMeGly(cPent) = CN[C@H](C(=O)O)C1CCCC1; Phe(3-I) = N[C@@H](Cc1cccc(I)c1)C(=O)O; Pro(4,4-F2) = O=C(O)[C@@H]1CC(F)(F)CN1; NMeCha = CN[C@@H](CC1CCCCC1)C(=O)O; NMeChg = CN[C@H](C(=O)O)C1CCCCC1; NMeD = CN[C@@H](CC(=O)O)C(=O)O; NMeL = CN[C@@H](CC(C)C)C(=O)O; NMehSer = CN[C@@H](CCO)C(=O)O; NMeV = CN[C@H](C(=O)O)C(C)C; d(β3hA) = C[C@@H](N)CC(=O)O; NMeA = CN[C@@H](C)C(=O)O; NMeAib = CNC(C)(C)C(=O)O; Nle = CCCC[C@H](N)C(=O)O; Piperidide = C1CCN(*)CC1; Pyrrolidide = C1CCN(*)C1; Ac5c = NC1(C(=O)O)CCCC1; Aze = O=C(O)[C@@H]1CCN1; Thp = NC1(C(=O)O)CCOCC1; Aib = CC(C)(N)C(=O)O; βAla = NCCC(=O)O; Sar = CNCC(=O)O

What follows are molecules tested against T1, Kras and SOS1 (biotin-tagged human Kras loaded with GDP, His-tagged human SOS1) (Homo sapiens, UniProt P01116, G12D) (assay: Protein-protein interaction inhibition between Kras and SOS1 (KrasGl2D-SOS PPI) using AlphaScreen). Conditions: AlphaScreen; biotin-tagged human Kras loaded with GDP, His-tagged human SOS1; read-out: KRAS G12D-SOS PPI IC50.
T1 construct: made in house; host or cells: E. coli (stated for Kras only)
T1 sequence (P01116 1-188 isoform P01116-2 G12D): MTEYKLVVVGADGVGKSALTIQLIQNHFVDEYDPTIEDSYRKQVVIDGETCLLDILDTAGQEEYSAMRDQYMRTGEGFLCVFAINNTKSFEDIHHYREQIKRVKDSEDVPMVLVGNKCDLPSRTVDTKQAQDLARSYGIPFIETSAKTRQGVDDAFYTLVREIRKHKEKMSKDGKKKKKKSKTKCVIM
Type: binding
Procedure: Protein-Protein Interaction Inhibition Between Kras and SOS1 (KrasGl2D-SOS PPI) Using AlphaScreen
Protein-protein interaction inhibition (PPI) between Kras and SOS1 was measured by energy transfer from nickel-conjugated donor beads to streptavidin-conjugated acceptor beads using biotin-tagged human Kras expressed in E. coli and loaded with GDP after purification and His-tagged human SOS1 enzyme. This measurement utilizes the phenomenon in which donor beads are irradiated with light at 680 nm, such that energy is transferred to acceptor beads through singlet oxygen and light at 520-620 nm is detected from the acceptor beads.
Inhibition of binding between K-ras and SOS1 is known to inhibit signaling downstream of Kras.
Work on CC[C@H](C)[C@@H]1NC(=O)[C@H](CC(C)C)N(C)C(=O)C[C@@H](C(=O)N2CCCCC2)N(C)C(=O)[C@H](CCOC)N(C)C(=O)C2(CCCC2)NC(=O)[C@@H]2CCCN2C(=O)[C@H](CCc2ccc(C(F)(F)F)c(Cl)c2)NC(=O)CN(C)C(=O)[C@H](CC2CCCCC2)N(C)C(=O)CN(C)C(=O)CN(C)C1=O [Compound 744] ([NMeL]I[Sar][Sar][NMeCha][Sar][hPhe(3-Cl-4-CF3)]P[Ac5c][NMehSer](Me)[NMeD]-Piperidide; lactam N-11) yielded an IC50 of 7.5 nM. With CC[C@H](C)[C@@H]1NC(=O)[C@H](CC(C)C)N(C)C(=O)C[C@@H](C)N(C)C(=O)[C@H](CC(C)C)N(C)C(=O)C2(CCOCC2)NC(=O)[C@@H]2CCCN2C(=O)[C@H](CCc2ccc(C(F)(F)F)c(F)c2)NC(=O)CN(C)C(=O)[C@H](CC2CCCCC2)N(C)C(=O)CN(C)C(=O)CN(C)C1=O [Compound 407] (cyclo(I[Sar][Sar][NMeCha][Sar][hPhe(3-F,4-CF3)]P[Thp][NMeL][NMedβ3hAla][NMeL])) the IC50 was 39 nM. CC[C@H](C)[C@@H]1NC(=O)[C@H](CC(C)C)N(C)C(=O)C[C@@H](C)NC(=O)[C@H](C(C)C)N(C)C(=O)C2(CCCC2)NC(=O)[C@@H]2CCCN2C(=O)[C@H](CCc2ccc(C(F)(F)F)c(Cl)c2)NC(=O)CN(C)C(=O)[C@H](Cc2cccc(Cl)c2)N(C)C(=O)CN(C)C(=O)CN(C)C1=O [Compound 1623] (cyclo([Ac5c][NMeV][d(β3hA)][NMeL]I[Sar][Sar][NMePhe(3-Cl)][Sar][hPhe(3-Cl-4-CF3)]P)) gave an IC50 of 54 nM. With CC(C)C[C@H]1C(=O)N[C@@H](CO)C(=O)N(C)CC(=O)N(C)CC(=O)N(C)[C@@H](CC2CCCCC2)C(=O)N(C)CC(=O)N[C@@H](CCc2ccc(C(F)(F)F)c(Cl)c2)C(=O)N2CCC[C@H]2C(=O)NC2(CCCC2)C(=O)N(C)[C@@H](C2CCCCC2)C(=O)N(C)[C@H](C(=O)N2CCCCC2)CC(=O)N1C [Compound 1799] ([NMeL]S[Sar][Sar][NMeCha][Sar][hPhe(3-Cl-4-CF3)]P[Ac5c][NMeChg][NMeD]-Piperidide; lactam N-11) the IC50 was 15 nM. For CCCC[C@@H]1NC(=O)[C@H](Cc2cccc(I)c2)NC(=O)CN(C)C(=O)[C@H](CC2CCCC2)N(C)C(=O)[C@@H]2CCN2C(=O)[C@H](C)N(C)C(=O)[C@H]([C@@H](C)CC)NC(=O)[C@H](CC(C)C)N(C)C(=O)C[C@@H](C(=O)N2CCCCC2)N(C)C(=O)[C@H](CC(C)C)NC(=O)C(C)(C)N(C)C1=O [Compound 1432] ([NMeL]I[NMeA][Aze][NMeAla(cPent)][Sar][Phe(3-I)][Nle][NMeAib]L[NMeD]-Piperidide; lactam N-11), the IC50 was 260 nM. For CC[C@H](C)[C@@H]1NC(=O)[C@H](C)N(C)C(=O)C[C@@H](C)NC(=O)[C@H](CC(C)C)N(C)C(=O)C(C)(C)NC(=O)[C@@H]2CCCN2C(=O)[C@H](CCc2ccc(C(F)(F)F)cc2)NC(=O)CN(C)C(=O)[C@H](Cc2ccc(Cl)cc2)N(C)C(=O)CN(C)C(=O)CN(C)C1=O [Compound 664] (cyclo([Aib][NMeL][d(β3hA)][NMeA]I[Sar][Sar][NMePhe(4-Cl)][Sar][hPhe(4-CF3)]P)), the IC50 was 25 nM. CC[C@H](C)[C@@H]1NC(=O)[C@H](CC(C)C)N(C)C(=O)C[C@@H](C(=O)N2CCCC2)N(C)C(=O)[C@H](C2CCCC2)N(C)C(=O)C2(CCCC2)NC(=O)[C@@H]2CC(F)(F)CN2C(=O)[C@H](CCc2cc(F)c(C(F)(F)F)c(F)c2)NC(=O)CN(C)C(=O)[C@H](CC2CCCCC2)N(C)C(=O)CN(C)C(=O)CN(C)C1=O [Compound 1166] ([NMeL]I[Sar][Sar][NMeCha][Sar][hPhe(3,5-F2-4-CF3)][Pro(4,4-F2)][Ac5c][NMeGly(cPent)][NMeD]-Pyrrolidide; lactam N-11) was tested, and the IC50 was 0.47 nM. In the case of CCCC[C@@H]1NC(=O)[C@H](CCc2ccc(C(F)(F)F)c(Cl)c2)NC(=O)CN(C)C(=O)[C@H](CC2CCCC2)N(C)C(=O)[C@@H]2CCN2C(=O)[C@H](C)N(C)C(=O)[C@H]([C@@H](C)CC)NC(=O)[C@H](CC(C)C)N(C)C(=O)C[C@@H](C(=O)N2CCCCC2)N(C)C(=O)[C@H](CC(C)C)NC(=O)C(C)(C)N(C)C1=O [Compound 691] ([NMeL]I[NMeA][Aze][NMeAla(cPent)][Sar][hPhe(3-Cl-4-CF3)][Nle][NMeAib]L[NMeD]-Piperidide; lactam N-11), the IC50 is reported as 7.1 nM. CC[C@H](C)[C@@H]1NC(=O)CCNC(=O)[C@H](Cc2ccc(F)cc2)N(C)C(=O)[C@H](C2CCCCC2)N(C)C(=O)C2(CCCC2)NC(=O)[C@@H]2CCCN2C(=O)[C@H](CCc2ccc(C(F)(F)F)c(Cl)c2)NC(=O)CN(C)C(=O)[C@H](CC2CCCCC2)N(C)C(=O)CN(C)C(=O)CN(C)C1=O [Compound 528] (cyclo([Ac5c][NMeChg][NMePhe(4-F)][βAla]I[Sar][Sar][NMeCha][Sar][hPhe(3-Cl-4-CF3)]P)) gave an IC50 of 20 nM.
